# Results: patent publication US10144742B2 (Millennium Pharmaceuticals, Inc., priority 2014, dated 2018)
# Read-outs that look alike come from different tables or passages of the source.
# Assays:
# hNAMPT protein = hNAMPT protein (Homo sapiens (Human), UniProt P43490); experiment: NAMPT enzyme assay (TR-FRET/HTRF, BodiPY ligand, anti 6His-Tb); format: binding; conditions: for IC50: read-out: IC50
# Outline: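 Compound or DMSO was incubated for 1 h at room temperature, protected from light, with BodiPY ligand and hNAMPT labelled by terbium anti-6His antibody. The 520 nm to 486 nm emission ratio after 320 nm excitation gave inhibition versus vehicle, from which concentration-response curves yielded IC50.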
# PC3 cells = experiment: PC3 growth inhibition (Cell-titer glo, 72 hours); format: cell-based; conditions: Homo sapiens, PC-3, PC3 cells, 72 hours, Cell-titer glo, read-out: Percent Inhibition (PC3 growth inhibition); for inhibition at 1 µM: compound concentration 1 μM; for inhibition at 1.667 µM: compound concentration 1.667 μM
# Outline: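 Compounds in AIM serum-free medium were applied for 72 h at 37 °C, 5% CO2 to PC3 cells plated overnight from RPMI1640 culture. Luminescence after 10 min CellTiter-Glo, normalised to DMSO, gave % viability at 1 μM or 1.667 μM, or GI50/LD50.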
# [1] = compound concentration 1 μM, read-out: Percent Inhibition
# [2] = NAMPT inhibition at compound concentration 1 μM, read-out: Percent Inhibition
# [3] = NAMPT inhibition, IC50 range class
# hNAMPT protein, sequence (P43490 whole entry): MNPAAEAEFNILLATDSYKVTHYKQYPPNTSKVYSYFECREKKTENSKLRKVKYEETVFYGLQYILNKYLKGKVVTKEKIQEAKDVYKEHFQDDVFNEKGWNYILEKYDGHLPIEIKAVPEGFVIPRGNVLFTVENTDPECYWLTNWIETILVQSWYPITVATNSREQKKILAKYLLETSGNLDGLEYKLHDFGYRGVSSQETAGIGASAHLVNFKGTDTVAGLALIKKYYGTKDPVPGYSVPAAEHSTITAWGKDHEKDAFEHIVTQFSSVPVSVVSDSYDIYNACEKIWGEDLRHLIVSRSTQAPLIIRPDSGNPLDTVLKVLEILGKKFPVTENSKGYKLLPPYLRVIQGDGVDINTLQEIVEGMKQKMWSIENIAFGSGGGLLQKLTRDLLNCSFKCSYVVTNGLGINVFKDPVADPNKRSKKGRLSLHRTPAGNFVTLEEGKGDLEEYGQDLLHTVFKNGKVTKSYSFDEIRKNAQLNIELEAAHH
structure (smiles),measurement,setting,value
"O=C(c1ccc2nc(-c3ccc(F)cc3)c(-c3ccc(F)cc3)nc2c1)N1CCn2nncc2C1 [Compound I-28, [2,3-bis(4-fluorophenyl)quinoxalin-6-yl](6,7-dihydro[1,2,3]triazolo[1,5-a]pyrazin-5(4H)-yl)methanone]",IC50,hNAMPT protein; NAMPT IC50 range class,2000 to 10000 nM
same,inhibition at 1 µM,hNAMPT protein; [1],19%
same,inhibition at 1 µM,PC3 cells,94%
"Cn1ccnc1CCCNC(=O)c1ccc2nc(-c3ccc(F)cc3)c(-c3ccc(F)cc3)nc2c1 [Compound I-234, 2,3-bis(4-fluorophenyl)-N-[3-(1-methyl-1H-imidazol-2-yl)propyl]quinoxaline-6-carboxamide]",IC50,hNAMPT protein; NAMPT IC50 range class,< 100 nM
same,inhibition at 1 µM,hNAMPT protein; [1],100%
same,inhibition at 1 µM,PC3 cells,41%
"COc1cc(-c2nc3cc(C(=O)NCc4ccc5nccn5c4)ccc3nc2OC(C)C)c(F)cn1 [Compound I-317, 3-(5-fluoro-2-methoxypyridin-4-yl)-N-(imidazo[1,2-a]pyridin-6-ylmethyl)-2-isopropoxyquinoxaline-6-carboxamide]",IC50,hNAMPT protein; NAMPT IC50 range class,100 to 500 nM
same,inhibition at 1 µM,hNAMPT protein; [1],66%
same,inhibition at 1.667 µM,PC3 cells,1%
"CN(c1nc2cc(C(=O)NCCCn3ccnc3)ccc2nc1-c1ccccc1)C1CC1 [Compound I-126, 3-[cyclopropyl(methyl)amino]-N-[3-(1H-imidazol-1-yl)propyl]-2-phenylquinoxaline-6-carboxamide]",IC50,hNAMPT protein; NAMPT IC50 range class,2000 to 10000 nM
same,inhibition at 1 µM,hNAMPT protein; [1],12%
same,inhibition at 1 µM,PC3 cells,93%
"CN1CCN(c2nc3ccc(C(=O)NCCCn4ccnc4)cc3nc2-c2ccccc2)CC1 [Compound I-128, N-[3-(1H-imidazol-1-yl)propyl]-2-(4-methylpiperazin-1-yl)-3-phenylquinoxaline-6-carboxamide]",IC50,hNAMPT protein; NAMPT IC50 range class,500 to 1000 nM
same,inhibition at 1 µM,hNAMPT protein; [1],60%
same,inhibition at 1 µM,PC3 cells,-7%
"O=C(NCCCc1ncc[nH]1)c1ccc2nc(-c3ccc(F)cc3)c(-c3ccc(F)cc3F)nc2c1 [Compound I-373, 3-(2,4-difluorophenyl)-2-(4-fluorophenyl)-N-[3-(1H-imidazol-2-yl)propyl]quinoxaline-6-carboxamide]",IC50,hNAMPT protein; NAMPT IC50 range class,100 to 500 nM
same,inhibition at 1 µM,hNAMPT protein; [1],84%
same,inhibition at 1.667 µM,PC3 cells,2%
"CCCOc1nc2ccc(C(=O)NCCCc3nnc[nH]3)cc2nc1-c1ccc(F)cc1 [Compound I-358, 3-(4-fluorophenyl)-2-propoxy-N-[3-(4H-1,2,4-triazol-3-yl)propyl]quinoxaline-6-carboxamide]",IC50,hNAMPT protein; NAMPT IC50 range class,100 to 500 nM
same,inhibition at 1 µM,hNAMPT protein; [1],78%
same,inhibition at 1.667 µM,PC3 cells,3%
"O=C(NCCCc1cncnc1)c1ccc2nc(N3CCOCC3)c(-c3ccc(F)cc3)nc2c1 [Compound I-193, 3-(4-Fluorophenyl)-2-(morpholin-4-yl)-N-[3-(pyrimidin-5-yl)propyl]quinoxaline-6-carboxamide]",IC50,hNAMPT protein; NAMPT IC50 range class,100 to 500 nM
same,inhibition at 1 µM,hNAMPT protein; read-out: Percent Inhibition,73%
same,inhibition at 1.667 µM,PC3 cells,> 99%
"O=C(NCCCc1cn[nH]c1)c1ccc2nc(N3CCCCC3)c(-c3ccc(F)cc3)nc2c1 [Compound I-94, 3-(4-fluorophenyl)-2-(piperidin-1-yl)-N-[3-(1H-pyrazol-4-yl)propyl]quinoxaline-6-carboxamide]",IC50,hNAMPT protein; NAMPT IC50 range class,< 100 nM
same,inhibition at 1 µM,hNAMPT protein; [1],92%
same,inhibition at 1.667 µM,PC3 cells,34%
"Cc1ccc(C(F)(F)F)cc1-c1nc2cc(C(=O)NCCCc3ncc[nH]3)ccc2nc1-c1ccc(F)cc1 [Compound I-445, 2-(4-fluorophenyl)-N-[3-(1H-imidazol-2-yl)propyl]-3-[2-methyl-5-(trifluoromethyl)phenyl]quinoxaline-6-carboxamide]",inhibition at 1 µM,hNAMPT protein; [2],91%
same,IC50,hNAMPT protein; [3],< 100 nM
same,inhibition at 1.667 µM,PC3 cells,2%
"N#Cc1ccc(-c2nc3cc(C(=O)NCCCc4ncc[nH]4)ccc3nc2-c2ccc(F)cc2)s1 [Compound I-363, 3-(5-cyano-2-thienyl)-2-(4-fluorophenyl)-N-[3-(1H-imidazol-2-yl)propyl]quinoxaline-6-carboxamide]",IC50,hNAMPT protein; NAMPT IC50 range class,100 to 500 nM
same,inhibition at 1 µM,hNAMPT protein; [1],78%
same,inhibition at 1.667 µM,PC3 cells,3%
"Cn1cc(-c2nc3ccc(C(=O)NCCCn4ccnc4)cc3nc2-c2ccccc2)cn1 [Compound I-119, N-[3-(1H-imidazol-1-yl)propyl]-2-(1-methyl-1H-pyrazol-4-yl)-3-phenylquinoxaline-6-carboxamide]",IC50,hNAMPT protein; NAMPT IC50 range class,500 to 1000 nM
same,inhibition at 1 µM,hNAMPT protein; [1],58%
same,inhibition at 1 µM,PC3 cells,-8%
"O=C(NCCCc1ncc[nH]1)c1ccc2nc(N3CCS(=O)(=O)CC3)c(-c3ccc(F)cc3)nc2c1 [Compound I-287, 2-(1,1-dioxidothiomorpholin-4-yl)-3-(4-fluorophenyl)-N-[3-(1H-imidazol-2-yl)propyl]quinoxaline-6-carboxamide]",IC50,hNAMPT protein; NAMPT IC50 range class,< 100 nM
same,inhibition at 1 µM,hNAMPT protein; [1],98%
same,inhibition at 1.667 µM,PC3 cells,2%
"COc1cc(-c2nc3cc(C(=O)NCCCc4nccn4C)ccc3nc2-c2ccc(F)cc2)c(F)cn1 [Compound I-519, 3-(5-fluoro-2-methoxypyridin-4-yl)-2-(4-fluorophenyl)-N-[3-(1-methyl-1H-imidazol-2-yl)propyl]quinoxaline-6-carboxamide]",inhibition at 1 µM,hNAMPT protein; [2],97%
same,IC50,hNAMPT protein; [3],< 100 nM
same,inhibition at 1.667 µM,PC3 cells,99%
"N#CCCOc1nc2ccc(C(=O)NCCCc3ncc[nH]3)cc2nc1-c1ccc(F)cc1 [Compound I-496, 2-(2-cyanoethoxy)-3-(4-fluorophenyl)-N-[3-(1H-imidazol-2-yl)propyl]quinoxaline-6-carboxamide]",inhibition at 1 µM,hNAMPT protein; [2],70%
same,IC50,hNAMPT protein; [3],100 to 500 nM
same,inhibition at 1.667 µM,PC3 cells,> 99%
"CCOc1cc(-c2nc3cc(C(=O)NCCCc4ncc[nH]4)ccc3nc2-c2ccc(F)cc2)c(F)cn1 [Compound I-517, 3-(2-ethoxy-5-fluoropyridin-4-yl)-2-(4-fluorophenyl)-N-[3-(1H-imidazol-2-yl)propyl]quinoxaline-6-carboxamide]",inhibition at 1 µM,hNAMPT protein; [2],76%
same,IC50,hNAMPT protein; [3],100 to 500 nM
same,inhibition at 1.667 µM,PC3 cells,1%
"COc1cccc(-c2nc3ccc(C(=O)NCCCn4ccnc4)cc3nc2-c2ccccc2)c1 [Compound I-187, N-[3-(1H-imidazol-1-yl)propyl]-2-(3-methoxyphenyl)-3-phenylquinoxaline-6-carboxamide]",IC50,hNAMPT protein; NAMPT IC50 range class,100 to 500 nM
same,inhibition at 1 µM,hNAMPT protein; [1],84%
same,inhibition at 1 µM,PC3 cells,-8%
"O=C(NCCCc1ccnnc1)c1ccc2nc(N3CCCCC3)c(-c3ccc(F)cc3)nc2c1 [Compound I-103, 3-(4-fluorophenyl)-2-(piperidin-1-yl)-N-[3-(pyridazin-4-yl)propyl]quinoxaline-6-carboxamide]",IC50,hNAMPT protein; NAMPT IC50 range class,< 100 nM
same,inhibition at 1 µM,hNAMPT protein; [1],96%
same,inhibition at 1.667 µM,PC3 cells,58%
"Cn1ccc2cc(-c3nc4cc(C(=O)NCCCc5ncc[nH]5)ccc4nc3-c3ccc(F)cc3)ccc21 [Compound I-386, 2-(4-fluorophenyl)-N-[3-(1H-imidazol-2-yl)propyl]-3-(1-methyl-1H-indol-5-yl)quinoxaline-6-carboxamide]",IC50,hNAMPT protein; NAMPT IC50 range class,100 to 500 nM
same,inhibition at 1 µM,hNAMPT protein; [1],90%
same,inhibition at 1.667 µM,PC3 cells,2%
"O=C(NCCc1c[nH]cn1)c1ccc2nc(-c3ccccc3)c(-c3ccccc3)nc2c1 [Compound I-118, N-[2-(1H-imidazol-4-yl)ethyl]-2,3-diphenylquinoxaline-6-carboxamide]",IC50,hNAMPT protein; NAMPT IC50 range class,2000 to 10000 nM
same,inhibition at 1 µM,hNAMPT protein; [1],29%
same,inhibition at 1 µM,PC3 cells,85%
"Cc1nccn1CCNC(=O)c1ccc2nc(-c3ccc(F)cc3)c(-c3ccc(F)cc3)nc2c1 [Compound I-26, 2,3-bis(4-fluorophenyl)-N-[2-(2-methyl-1H-imidazol-1-yl)ethyl]quinoxaline-6-carboxamide]",IC50,hNAMPT protein; NAMPT IC50 range class,1000 to 2000 nM
same,inhibition at 1 µM,hNAMPT protein; [1],37%
same,inhibition at 1 µM,PC3 cells,99%
"O=C(NCCCc1ncc[nH]1)c1ccc2nc(-c3ccc(F)cc3)c(-c3cc(F)c(F)cc3F)nc2c1 [Compound I-337, 2-(4-fluorophenyl)-N-[3-(1H-imidazol-2-yl)propyl]-3-(2,4,5-trifluorophenyl)quinoxaline-6-carboxamide]",IC50,hNAMPT protein; NAMPT IC50 range class,100 to 500 nM
same,inhibition at 1 µM,hNAMPT protein; [1],88%
same,inhibition at 1.667 µM,PC3 cells,3%
"O=C(NCCn1cccn1)c1ccc2nc(-c3ccc(F)cc3)c(-c3ccc(F)cc3)nc2c1 [Compound I-83, 2,3-bis(4-fluorophenyl)-N-[2-(1H-pyrazol-1-yl)ethyl]quinoxaline-6-carboxamide]",IC50,hNAMPT protein; NAMPT IC50 range class,2000 to 10000 nM
same,inhibition at 1 µM,hNAMPT protein; [1],33%
same,inhibition at 1 µM,PC3 cells,96%
"O=C(NCCCn1ccnc1)c1ccc2nc(-c3ccccc3)c(-c3cccnc3)nc2c1 [Compound I-176, N-[3-(1H-imidazol-1-yl)propyl]-2-phenyl-3-(pyridin-3-yl)quinoxaline-6-carboxamide]",IC50,hNAMPT protein; NAMPT IC50 range class,1000 to 2000 nM
same,inhibition at 1 µM,hNAMPT protein; [1],46%
same,inhibition at 1 µM,PC3 cells,1%
"O=C(NCCCc1ncc[nH]1)c1ccc2nc(OCc3ncc[nH]3)c(-c3ccc(F)cc3)nc2c1 [Compound I-459, 3-(4-fluorophenyl)-2-(1H-imidazol-2-ylmethoxy)-N-[3-(1H-imidazol-2-yl)propyl]quinoxaline-6-carboxamide]",inhibition at 1 µM,hNAMPT protein; [2],47%
same,IC50,hNAMPT protein; [3],500 to 1000 nM
same,inhibition at 1.667 µM,PC3 cells,> 99%
"O=C(NCCc1ncc[nH]1)c1ccc2nc(-c3ccc(F)cc3)c(-c3ccc(Cl)s3)nc2c1 [Compound I-443, N-(2-(1H-imidazol-2-yl)ethyl)-3-(5-chlorothiophen-2-yl)-2-(4-fluorophenyl)quinoxaline-6-carboxamide]",inhibition at 0.333 µM,"hNAMPT protein; NAMPT inhibition at compound concentration 0.333 μM (data at 1 uM not available due to solubility limitations), read-out: Percent Inhibition",57%
same,IC50,hNAMPT protein; [3],100 to 500 nM
same,inhibition at 1.667 µM,PC3 cells,11%
"CN(C)CCOc1nc2ccc(C(=O)NCCCc3ncc[nH]3)cc2nc1-c1ccc(F)cc1 [Compound I-509, 2-[2-(dimethylamino)ethoxy]-3-(4-fluorophenyl)-N-[3-(1H-imidazol-2-yl)propyl]quinoxaline-6-carboxamide]",inhibition at 1 µM,hNAMPT protein; [2],94%
same,IC50,hNAMPT protein; [3],< 100 nM
same,inhibition at 1.667 µM,PC3 cells,3%
